# Test results taken from PMC10401862, “A high-throughput dual system to screen polyphosphate kinase mutants for efficient ATP regeneration in L-theanine biocatalysis” (Biotechnology for Biofuels and Bioproducts, 2023).
# Experiments:
# Assay type in all cases: biochemical
# PaPPK2II = target: T1, PaPPK2II (Pseudomonas aeruginosa, UniProt Q9I154); assay: coupled hexokinase / G6PD assay, […] nm; details: 100 mM Tris-HCl pH 8.0, 35 °C, 10 mM ADP, 50 mM polyP6, 25 mM MgCl2
# T1 construct: gene PA2428; expressed in E. coli BL21(DE3) from pET-28a, Ni-NTA purified
# T1 sequence (Q9I154 1-304): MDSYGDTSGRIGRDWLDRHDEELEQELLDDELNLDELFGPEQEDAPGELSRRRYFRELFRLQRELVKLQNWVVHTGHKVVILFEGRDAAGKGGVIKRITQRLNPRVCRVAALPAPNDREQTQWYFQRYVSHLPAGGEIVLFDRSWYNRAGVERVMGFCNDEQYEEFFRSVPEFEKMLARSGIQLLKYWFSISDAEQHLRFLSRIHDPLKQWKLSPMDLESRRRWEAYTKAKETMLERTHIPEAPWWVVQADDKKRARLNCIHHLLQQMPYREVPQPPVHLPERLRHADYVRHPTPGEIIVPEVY
# PaPPK2III = target: T2, PaPPK2III (Pseudomonas aeruginosa, UniProt Q9HYF1); assay: coupled hexokinase / G6PD assay, […] nm; details: 100 mM Tris-HCl pH 8.0, 35 °C, 10 mM ADP, 50 mM polyP6, 25 mM MgCl2
# T2 construct: gene PA3455; expressed in E. coli BL21(DE3) from pET-28a, Ni-NTA purified
# T2 sequence (Q9HYF1 1-496): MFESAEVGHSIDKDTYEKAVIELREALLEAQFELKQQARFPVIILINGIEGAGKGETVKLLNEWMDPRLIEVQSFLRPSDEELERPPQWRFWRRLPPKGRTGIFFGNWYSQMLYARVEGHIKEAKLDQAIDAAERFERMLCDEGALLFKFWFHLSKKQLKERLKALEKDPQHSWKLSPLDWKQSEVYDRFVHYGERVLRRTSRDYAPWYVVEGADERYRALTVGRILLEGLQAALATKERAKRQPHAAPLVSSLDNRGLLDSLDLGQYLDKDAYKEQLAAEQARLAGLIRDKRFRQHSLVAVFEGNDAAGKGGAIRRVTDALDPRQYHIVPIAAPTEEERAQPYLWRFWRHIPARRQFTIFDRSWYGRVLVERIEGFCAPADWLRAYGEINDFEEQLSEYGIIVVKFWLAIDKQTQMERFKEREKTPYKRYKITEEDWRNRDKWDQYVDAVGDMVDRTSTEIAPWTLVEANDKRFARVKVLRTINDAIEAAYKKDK
# EbPPK = target: T3, EbPPK (Erysipelotrichaceae bacterium, UniProt P0DY74); assay: coupled hexokinase / G6PD assay, […] nm; details: 100 mM Tris-HCl pH 8.0, 35 °C
# T3 construct: gene DHS57_05705; synthesized gene expressed in E. coli BL21(DE3) from pXMJ-19, Ni-NTA purified
# T3 sequence (P0DY74 1-298): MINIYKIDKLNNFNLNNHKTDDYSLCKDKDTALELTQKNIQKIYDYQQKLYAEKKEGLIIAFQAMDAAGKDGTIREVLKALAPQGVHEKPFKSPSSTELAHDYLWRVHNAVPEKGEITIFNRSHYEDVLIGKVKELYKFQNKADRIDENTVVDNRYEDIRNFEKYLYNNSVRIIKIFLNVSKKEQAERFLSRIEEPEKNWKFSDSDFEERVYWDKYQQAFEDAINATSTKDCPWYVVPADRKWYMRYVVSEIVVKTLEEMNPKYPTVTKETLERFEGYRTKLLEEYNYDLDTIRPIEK
# GS = target: T4, GS (Corynebacterium glutamicum, UniProt H7C697); assay: L-glutamine production, HPLC with OPA derivatization; details: Tris-HCl pH 8.0, 37 °C, 100 mM (NH4)2SO4, 150 mM ATP, 50 mM MgCl2
# T4 construct: gene glnA; expressed in E. coli BL21(DE3), Ni-NTA purified
# T4 sequence (H7C697 1-477): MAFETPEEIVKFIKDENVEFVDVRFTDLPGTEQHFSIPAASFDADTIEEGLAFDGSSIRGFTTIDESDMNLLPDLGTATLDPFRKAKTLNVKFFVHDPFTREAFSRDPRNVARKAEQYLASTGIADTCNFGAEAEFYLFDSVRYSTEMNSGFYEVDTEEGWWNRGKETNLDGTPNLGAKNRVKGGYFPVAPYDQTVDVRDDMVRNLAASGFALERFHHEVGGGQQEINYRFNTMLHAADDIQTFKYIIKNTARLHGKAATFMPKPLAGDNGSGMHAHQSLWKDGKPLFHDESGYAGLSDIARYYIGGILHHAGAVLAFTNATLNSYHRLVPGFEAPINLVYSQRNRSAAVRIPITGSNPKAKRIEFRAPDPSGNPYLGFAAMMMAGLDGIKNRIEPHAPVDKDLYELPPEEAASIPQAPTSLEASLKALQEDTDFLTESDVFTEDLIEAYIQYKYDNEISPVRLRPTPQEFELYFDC
# ChPPK [1] = target: T5, ChPPK (Cytophaga hutchinsonii, UniProt A0A6N4SMB5, K103E); assay: coupled hexokinase / G6PD assay, […] nm, double reciprocal plot; details: 100 mM Tris-HCl pH 8.0, 35 °C, MgCl2; polyP6 1 to 7.5 mM, ADP as co-substrate
# T5 construct: gene CHU_0107; synthesized gene expressed in E. coli BL21(DE3) from pXMJ-19, Ni-NTA purified
# T5 sequence (A0A6N4SMB5 entry or part of it K103E): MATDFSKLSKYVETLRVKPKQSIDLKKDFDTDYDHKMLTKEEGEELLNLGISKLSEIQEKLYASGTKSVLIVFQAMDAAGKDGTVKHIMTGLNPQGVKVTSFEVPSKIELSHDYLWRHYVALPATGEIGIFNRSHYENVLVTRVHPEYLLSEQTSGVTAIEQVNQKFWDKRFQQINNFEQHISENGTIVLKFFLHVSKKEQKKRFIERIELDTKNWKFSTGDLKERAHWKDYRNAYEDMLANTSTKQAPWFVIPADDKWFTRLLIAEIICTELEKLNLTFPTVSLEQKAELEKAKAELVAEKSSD
# ChPPK [2] = target: T6, ChPPK (Cytophaga hutchinsonii, UniProt A0A6N4SMB5, D82N); assay: as above; details: 100 mM Tris-HCl pH 8.0, 35 °C, MgCl2; polyP6 1 to 7.5 mM, ADP as co-substrate
# T6 construct: gene CHU_0107; synthesized gene expressed in E. coli BL21(DE3) from pXMJ-19, Ni-NTA purified
# T6 sequence (A0A6N4SMB5 entry or part of it D82N): as the sequence (A0A6N4SMB5 entry or part of it K103E) above, with D82N, E103K counted along it
# ChPPK [3] = target: T7, ChPPK (Cytophaga hutchinsonii, UniProt A0A6N4SMB5); assay: as above; details: 100 mM Tris-HCl pH 8.0, 35 °C, MgCl2; polyP6 1 to 7.5 mM, ADP as co-substrate
# T7 construct: gene CHU_0107; synthesized gene expressed in E. coli BL21(DE3) from pXMJ-19, Ni-NTA purified
# T7 sequence (A0A6N4SMB5 1-305): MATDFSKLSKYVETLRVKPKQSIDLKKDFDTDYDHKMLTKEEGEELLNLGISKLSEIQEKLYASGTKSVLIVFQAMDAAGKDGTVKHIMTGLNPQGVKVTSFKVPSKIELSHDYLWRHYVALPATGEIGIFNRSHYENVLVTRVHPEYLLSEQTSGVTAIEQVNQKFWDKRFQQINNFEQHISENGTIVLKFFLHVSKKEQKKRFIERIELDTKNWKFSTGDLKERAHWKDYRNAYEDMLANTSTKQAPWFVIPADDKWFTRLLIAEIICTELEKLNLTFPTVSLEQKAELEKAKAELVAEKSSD
compound,measurement,setting,value
Nc1ncnc2c1ncn2[C@@H]1O[C@H](COP(=O)(O)OP(=O)(O)O)[C@@H](O)[C@H]1O [ADP],"coupled hexokinase / G6PD assay, 340 nm",PaPPK2II,the specific activities of the seven PPK enzymes
same,"coupled hexokinase / G6PD assay, 340 nm",PaPPK2III,the specific activities of the seven PPK enzymes
same,"coupled hexokinase / G6PD assay, 340 nm","EbPPK; 10 mM ADP, 50 mM polyP6, 25 mM MgCl2","polyP3, polyP6 and polyPn were carried out to show the specific activities"
Nc1ncnc2c1ncn2[C@@H]1O[C@H](COP(=O)(O)O)[C@@H](O)[C@H]1O [AMP],"coupled hexokinase / G6PD assay, 340 nm","EbPPK; 10 mM AMP, polyP6, 25 mM MgCl2",EbPPK was capable of the best catalytic efficiency for converting AMP
N[C@@H](CCC(=O)O)C(=O)O [L-glutamate],"L-glutamine production, HPLC with OPA derivatization",GS,We performed glutamine production from glutamate with GS enzyme
polyP6,Km,ChPPK [1],2240 ± 20 µM
same,Km,ChPPK [2],2120 ± 10 µM
same,Km,ChPPK [3],2300 ± 20 µM
